{"source": "paper PMC8001995", "about": "“Sea Anemone Kunitz-Type Peptides Demonstrate Neuroprotective Activity in the 6-Hydroxydopamine Induced Neurotoxicity Model” (Biomedicines, 2021)", "key": {"[1]": {"test": "DPPH radical scavenging cell free assay", "settings": "10 µM compound, 30 min, absorbance 520 nm, versus MeOH control, mean ± SEM of three independent replicates", "experimental": "The 2,2-diphenyl-1-picryl-hydrazyl-hydrate (DPPH) radical scavenging activity was tested as described previously. The compound solutions (120 µL) were dispensed into wells of a 96-well microplate. The DPPH (Sigma-Aldrich, Germany) was dissolved in MeOH at concentration of 7.5 µM and the solution (30 µL) was added to each well. The concentrations of tested compounds in the mixtures were 10 µM. The mixtures were shaken and left for 30 min. The absorbance of the resulting solutions was measured at λ = 520 nm with a MultiscanFC plate reader (Thermo Fisher Scientific, Waltham, MA, USA). The scavenging of the DPPH radical in comparison with control (MeOH) (%) was calculated for each compound. Ascorbic acid at 10 µM was used as positive control."}, "Neuro-2a cells [2]": {"system": "Neuro-2a cells", "test": "6-Hydroxydopamine-induced cytotoxicity (neuroprotection), MTT", "format": "cell-based, murine", "settings": "25 µM 6-OHDA 24 h, no peptide; versus control", "experimental": "(§1) Neuro-2a neuroblastoma cells (ATCC® CCL-131™) were obtained from American Type Culture Collection (Manassas, VA, USA). The cells were cultivated in DMEM medium (BioloT, St. Petersburg, Russia) supplemented with 10% of fetal bovine serum (BioloT, Russia) and 1% penicillin/streptomycin (BioloT, St. Petersburg, Russia) at 37 °C and 5% CO2. Initially, cells were incubated in cultural flasks until sub-confluent (~80%). For testing, Neuro-2a cells were seeded in 96-well plates and experiments were started after 24 h.\nNeuro-2a cells were seeded at 1 × 10^4 cells/well in 96-well plates for studying of neuroprotective activity of peptides. The tested peptides were added to the cell monolayer and cells were incubated at 37 °C for 1 h. Then, the cells were exposed to 6-OHDA (Sigma-Aldrich, St. Louis, MO, USA) at 25 µM for 24 h at 37 °C with 5% CO2. Thereafter, the medium was replaced with clean serum-free medium, and the number of viable cells was determined by MTT assay. Neuro-2a cells were cultured without test compound or neurotoxins as the control group. Results were expressed in percentage of control as the mean ± SEM of three independent replicates."}, "Neuro-2a cells [3]": {"system": "Neuro-2a cells", "test": "Intracellular ROS level, DCFH-DA probe, 6-OHDA-treated cells", "format": "cell-based, murine", "settings": "25 µM 6-OHDA 30 min, no peptide", "experimental": "as §1\nThe level of intracellular ROS was measured using the ROS sensitive dye, 2,7-dichloro-fluorescein diacetate (DCFH-DA), as a probe. In brief, Neuro-2a cells were seeded in 96-well plates at 1 × 10^4 cells/well, culturing in the presence or absence of various concentrations of tested peptides for 1 h, and then 6-OHDA (25 µM) was added in each well for 30 min at 37 °C with 5% CO2. […] The fluorescence of 2,7-dichlorofluorescein (DCF) was detected with PHERAstar FS fluorescent plate reader (BMG Labtech, Ortenberg, Germany) at λex = 485 nm and λem = 518 nm. […] The cytoprotective effect of peptides and the increase in cell viability under their action was calculated as a percentage, taking the cell viability treated with 6-OHDA as 100%."}}}
{"compound": "O=C1O[C@H]([C@@H](O)CO)C(O)=C1O", "note": "[Ascorbic acid]", "values": [{"measurement": "Scavenging of DPPH Radicals", "setting": "[1]", "result": "33.8 ± 2.4", "unit": "%"}]}
{"compound": "NCCc1cc(O)c(O)cc1O", "note": "[Peptide 6-OHDA, 6-hydroxydopamine]", "values": [{"measurement": "Viability of Neuro-2a cells treated with 6-OHDA", "setting": "Neuro-2a cells [2]", "result": 42.6, "unit": "%"}, {"measurement": "ROS level in 6-OHDA-treated cells", "setting": "Neuro-2a cells [3]", "result": "up to 130 % to the control level"}]}
